Laboratory results reported in patent US9278942B2, “Non-steroidal compounds as androgen receptor modulators” (FLX Discoveries Oy, priority 2011, dated 2016).

biological target: T1, human AR (Homo sapiens, UniProt P10275); assay: Competitive AR binding assay against [3H]-R1881 in transiently transfected COS-1 cells; conditions: Table 1; compound 13.4 μM; [3H]-R1881 1.34 nM; complete inhibition equals 100%
T1 construct: expressed in transfected cells; host or cells: COS-1
T1 sequence (P10275 1-920): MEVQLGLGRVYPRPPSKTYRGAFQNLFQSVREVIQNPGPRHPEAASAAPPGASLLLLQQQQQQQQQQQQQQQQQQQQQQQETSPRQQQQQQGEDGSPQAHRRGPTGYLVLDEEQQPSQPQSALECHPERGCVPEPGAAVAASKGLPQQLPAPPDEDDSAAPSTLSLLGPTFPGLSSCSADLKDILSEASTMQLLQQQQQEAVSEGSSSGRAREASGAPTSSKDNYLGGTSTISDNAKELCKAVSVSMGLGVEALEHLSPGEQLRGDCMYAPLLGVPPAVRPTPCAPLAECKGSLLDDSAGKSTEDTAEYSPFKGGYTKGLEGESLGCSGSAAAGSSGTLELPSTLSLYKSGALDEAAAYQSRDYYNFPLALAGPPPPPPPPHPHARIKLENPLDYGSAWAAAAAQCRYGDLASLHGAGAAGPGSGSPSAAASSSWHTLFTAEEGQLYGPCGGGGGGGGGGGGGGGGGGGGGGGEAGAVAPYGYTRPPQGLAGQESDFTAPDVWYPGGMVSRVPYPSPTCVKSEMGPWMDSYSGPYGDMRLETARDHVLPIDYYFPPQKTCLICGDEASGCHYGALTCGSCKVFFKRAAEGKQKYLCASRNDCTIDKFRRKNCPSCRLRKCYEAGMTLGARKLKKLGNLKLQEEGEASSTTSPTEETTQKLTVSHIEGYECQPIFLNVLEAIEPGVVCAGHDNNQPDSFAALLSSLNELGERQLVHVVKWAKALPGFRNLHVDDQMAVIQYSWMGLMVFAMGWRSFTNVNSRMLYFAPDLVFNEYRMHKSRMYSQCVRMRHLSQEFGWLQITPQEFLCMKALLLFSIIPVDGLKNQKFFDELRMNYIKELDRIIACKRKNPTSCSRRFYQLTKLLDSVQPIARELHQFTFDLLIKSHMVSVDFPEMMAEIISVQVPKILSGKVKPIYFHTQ
Protocol: Competitive AR Binding Assay.
AR binding was measured by a competitive assay against [^3H]-R1881 (PerkinElmer) in transiently transfected COS-1 cells. One day before transfection, COS-1 cells were seeded into 2 ml of DMEM (Dulbecco's modified Eagle medium, Gipco) with 10% dextran-charcoal-treated fetal bovine serum and 0.25% (vol/vol) Penicillin-Streptomysin (Euroclone) at a density of 140×10^3 cells/well. After medium change to DMEM 2.5% FBS, the cells were transfected for 24 hours with 10 ng/well of human AR expression vector pSG5 hAR by using the TransIT method (Micrus Bio TransIT LT1, Transfection Reagent). After 36 hours, the cells where treated with tested compounds using 10000 fold molarities compared to labelled R1881 (1.34 nM). After 2 hours of incubation at 37° C., the medium was removed. The cells were removed from the wells to 150 μl of 1× phosphate buffered saline (PBS), transferred to Eppendorf tubes and centrifuged at 4° C. using 4000×g for 5 min, and then washed twice with 150 μl of PBS. The cell pellets were dissolved to 50 μl of 0.5M NaOH and incubated for 15 min at 56° C., after which the samples (three replicates for each sample compound) were transferred to liquid twinkle tubes with 3 ml of OptiPhase HiSafe 3 twinkle solution (PerkinElmer) and radioactivity of AR-bound [^3H]-R1881 determined. The results were measured with LKB WALLAC 1214 racbeta equipment. The ability of test compounds to bind AR is reported as reduction in bound radioactivity obtained with 1.34 nM [^3H]-R1881.
The results (% inhibition) were calculated as: % inhibition=100−[100×(averagecompound/average[3H]-R1881)].

Inhibition of [3H]-R1881 binding at 1.34 nM ± S.D. [%]	SMILES
0	COc1ccc(C2=NOC(Cc3ccccc3)(c3ccccc3)C2)cc1 (single isomer, unassigned) [Example 14b, 5-Benzyl-3-(4-methoxyphenyl)-5-phenyl-4,5-dihydro-isoxazole]
34.7 ± 2.7	O=[N+]([O-])c1ccc(C2=NOC3CCCCC23)cc1 (single isomer, unassigned) [Example 34a, 3-(4-Nitro-phenyl)-3a,4,5,6,7,7a-hexahydro-benzo[d]-isoxazole]
17.0 ± 7.0	Fc1ccccc1C1=NOC2CCCCC12 (single isomer, unassigned) [Example 27a, 3-(2-Fluoro-phenyl)-3a,4,5,6,7,7a-hexahydro-benzo[d]-isoxazole]
0	O=[N+]([O-])c1ccc(C2=NOC3CCCCC23)cc1 (single isomer, unassigned) [Example 34b, 3-(4-Nitro-phenyl)-3a,4,5,6,7,7a-hexahydro-benzo[d]-isoxazole]
1.6 ± 6.6	COc1cccc(C2=NOC(Cc3ccccc3)(c3ccccc3)C2)c1 (single isomer, unassigned) [Example 13b, 5-Benzyl-5-phenyl-3-(3-methoxyphenyl)-4,5-dihydro-isoxazole]
30.2 ± 3.8	Clc1ccccc1C1=NOC2CCCCC12 (single isomer, unassigned) [Example 30a, 3-(2-Chloro-phenyl)-3a,4,5,6,7,7a-hexahydro-benzo[d]-isoxazole]
29.6 ± 3.4	COc1ccc(C2=NOC(Cc3ccccc3)(c3ccccc3)C2)cc1 (single isomer, unassigned) [Example 14a, 5-Benzyl-3-(4-methoxyphenyl)-5-phenyl-4,5-dihydro-isoxazole]
20.3 ± 9.9	Clc1cccc(C2=NOC3CCCCC23)c1 (single isomer, unassigned) [Example 31a, 3-(3-Chloro-phenyl)-3a,4,5,6,7,7a-hexahydro-benzo[d]-isoxazole]
32.7 ± 3.5	CCCCN1C(Cc2ccccc2)=NOC1(C)Cc1ccccc1 (stereo not shown) [Example 55b, 3,5-Dibenzyl-4-butyl-5-methyl-4,5-dihydro-[1,2,4]oxadiazole]
13.5 ± 1.6	COc1ccc(CC2=NOC(C)(Cc3ccccc3)N2CC(C)C)cc1 (single isomer, unassigned) [Example 65b, 5-Benzyl-4-isobutyl-3-(4-methoxy-benzyl)-5-methyl-4,5-dihydro-[1,2,4]oxadiazole]
0	CC(C)CN1C(c2ccc([N+](=O)[O-])cc2)=NOC1(C)Cc1ccccc1 (single isomer, unassigned) [Example 61b, 5-Benzyl-4-isobutyl-5-methyl-3-(4-nitro-phenyl)-4,5-dihydro-[1,2,4]oxadiazole]
55.7 ± 1.9	CCCCN1C(c2cccc(Cl)c2)=NOC1(C)Cc1ccccc1 (stereo not shown) [Example 50b, 5-Benzyl-4-butyl-3-(3-chloro-phenyl)-5-methyl-4,5-dihydro-[1,2,4]oxadiazole]
0	Clc1cccc(C2=NOC3CCCCC23)c1 (single isomer, unassigned) [Example 31b, 3-(3-Chloro-phenyl)-3a,4,5,6,7,7a-hexahydro-benzo[d]-isoxazole]
30.2 ± 6.0	COc1ccccc1C1=NOC(Cc2ccccc2)(c2ccccc2)C1 (single isomer, unassigned) [Example 12b, 5-Benzyl-3-(2-methoxyphenyl)-5-phenyl-4,5-dihydro-isoxazole]
59.7 ± 2.7	CC1(Cc2ccccc2)CC(c2ccccc2Cl)=NO1 (stereo not shown) [Example 5b, 5-Benzyl-3-(2-chlorophenyl)-5-methyl-4,5-dihydroisoxazole]
14.9 ± 1.8	CC(C)CN1C(c2ccc([N+](=O)[O-])cc2)=NOC1(C)Cc1ccccc1 (single isomer, unassigned) [Example 61a, 5-Benzyl-4-isobutyl-5-methyl-3-(4-nitro-phenyl)-4,5-dihydro-[1,2,4]oxadiazole]
55.9 ± 1.1	COc1ccccc1C1=NOC(Cc2ccccc2)(c2ccccc2)C1 (single isomer, unassigned) [Example 12a, 5-Benzyl-3-(2-methoxyphenyl)-5-phenyl-4,5-dihydro-isoxazole]

same assay, conditions: Table 1; compound 13.4 μM; [3H]-R1881 1.34 nM; complete inhibition equals 100%; read-out: Inhibition of [3H]-R1881 binding at 1.34 nM ± S.D.

inhibition at 13.4 µM [%]	SMILES
51 ± 2.4	CC1(Cc2ccccc2)CC(c2ccc(Cl)cc2)=NO1 (stereo not shown) [Example 7ab, 5-Benzyl-3-(4-chlorophenyl)-5-methyl-4,5-dihydro-isoxazole]
8.2 ± 1.3	CCCCN1C(CCc2ccc(OC)cc2)=NOC1(C)Cc1ccccc1 (stereo not shown) [Example 58ab, 5-Benzyl-4-butyl-3-[2-(4-methoxy-phenyl)-ethyl]-5-methyl-4,5-dihydro-[1,2,4]oxadiazole]
48.7 ± 3.3	CCCCN1C(CCc2ccccc2)=NOC1(C)Cc1ccccc1 (stereo not shown) [Example 57ab, 5-Benzyl-4-butyl-5-methyl-3-phenethyl-4,5-dihydro-[1,2,4]oxadiazole]
39.1 ± 2.6	CCCCN1C(CCCc2ccccc2)=NOC1(C)Cc1ccccc1 (stereo not shown) [Example 59ab, 5-Benzyl-4-butyl-5-methyl-3-(3-phenyl-propyl)-4,5-dihydro-[1,2,4]oxadiazole]
35.1 ± 5.8	CCCCN1C(Cc2ccccc2)=NOC1(C)Cc1ccccc1 (stereo not shown) [Example 55a, 3,5-Dibenzyl-4-butyl-5-methyl-4,5-dihydro-[1,2,4]oxadiazole]
14.7 ± 1	CC(C)CN1C(CCCc2ccccc2)=NOC1(C)Cc1ccccc1 (stereo not shown) [Example 68ab, 5-Benzyl-4-isobutyl-5-methyl-3-(3-phenyl-propyl)-4,5-dihydro-[1,2,4]oxadiazole]
28.2 ± 3	CCCCN1C(c2ccc3ccccc3c2)=NOC1(C)Cc1ccccc1 (stereo not shown) [Example 54ab, 5-Benzyl-4-butyl-5-methyl-3-napthalen-2-yl-4,5-dihydro-[1,2,4]oxadiazole]
63.8 ± 1.8	CCCCN1C(c2cccc(Cl)c2)=NOC1(C)Cc1ccccc1 (stereo not shown) [Example 50a, 5-Benzyl-4-butyl-3-(3-chloro-phenyl)-5-methyl-4,5-dihydro-[1,2,4]oxadiazole]
17.8 ± 2.4	CC(C)CN1C(CCc2ccccc2)=NOC1(C)Cc1ccccc1 (stereo not shown) [Example 66ab, 5-Benzyl-4-isobutyl-5-methyl-3-phenethyl-4,5-dihydro-[1,2,4]oxadiazole]
29.8 ± 10.8	CCCCN1C(c2cccc3ccccc23)=NOC1(C)Cc1ccccc1 (stereo not shown) [Example 53ab, 5-Benzyl-4-butyl-5-methyl-3-napthalen-1-yl-4,5-dihydro-[1,2,4]oxadiazole]
30.4 ± 2.9	CC1(Cc2ccccc2)CC(c2ccc(C#N)cc2)=NO1 (stereo not shown) [Example 8ab, 4-(5-Benzyl-5-methyl-4,5-dihydro-isoxazol-3-yl)-benzonitrile]
42.7 ± 6.6	CC1(Cc2ccccc2)CC(c2ccccc2Cl)=NO1 (stereo not shown) [Example 5a, 5-Benzyl-3-(2-chlorophenyl)-5-methyl-4,5-dihydroisoxazole]
31.4 ± 1.9	CC1(Cc2ccccc2)CC(c2cccc(Cl)c2)=NO1 (stereo not shown) [Example 6ab, 5-Benzyl-3-(3-chlorophenyl)-5-methyl-4,5-dihydroisoxazole]
64.2 ± 2.2	COc1cccc(C2=NOC(C)(Cc3ccccc3)C2)c1 (stereo not shown) [Example 2ab, 5-Benzyl-3-(3-methoxyphenyl)-5-methyl-4,5-dihydro-isoxazole]
